From the supplement of paper PMC10307832

Key:
Assay in all cases: relative viability (nuclei count vs DMSO), 5 days (fraction); higher = more cells survive
[1] = test system: NCI-H1793
How it was run: (§1)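 Cells from lung cancer lines were seeded into 1536-well plates and, one day later, dosed by pin tool. Treatments were either a single drug or a fixed dose of an anchor drug with five library-drug doses (not always all listed) in √10 steps. After 5 days, nuclei were stained in a one-step fixation (final 0.05% Triton X-100, 1% formaldehyde, 1 ug/ml Hoechst) and counted on 4× images, and relative viability is the treated-to-vehicle nuclei ratio, as the median of duplicate plates.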

[2] = test system: NCI-H322M
How it was run: as §1

[3] = test system: HARA
How it was run: as §1

[4] = test system: LXF-289
How it was run: as §1

[5] = test system: PC-3 [JPC-3]
How it was run: as §1

[6] = test system: NCI-H2126
How it was run: as §1

[7] = test system: NCI-H2170
How it was run: as §1

[8] = test system: NCI-H23
How it was run: as §1

[9] = test system: NCI-H1915
How it was run: as §1

[10] = test system: NCI-H1666
How it was run: as §1

[11] = test system: LCLC-97TM1
How it was run: as §1

[12] = test system: BEN
How it was run: as §1

[13] = test system: NCI-H441
How it was run: as §1

[14] = test system: NCI-H1755
How it was run: as §1

[15] = test system: NCI-H650
How it was run: as §1

[16] = test system: A-427
How it was run: as §1

[17] = test system: NCI-H1944
How it was run: as §1

[18] = test system: NCI-H460
How it was run: as §1

[19] = test system: NCI-H1395
How it was run: as §1

[20] = test system: LU99A
How it was run: as §1

[21] = test system: LOU-NH91
How it was run: as §1

SMILES: O=c1[nH]c2ccccc2n1C1CCN(CCCC(c2ccc(F)cc2)c2ccc(F)cc2)CC1 [Pimozide] + NC(=O)Nc1cc(-c2cccc(F)c2)sc1C(=O)N[C@H]1CCCNC1 [AZD7762] (partner 0.2 µM)
- relative viability ([1]; first compound 0.08 µM): 0.553
- relative viability ([1]; first compound 0.253 µM): 0.36
- relative viability ([1]; first compound 0.8 µM): 0.352
- relative viability ([1]; first compound 2.53 µM): 0.263
- relative viability ([1]; first compound 8 µM): 0.28
- relative viability ([2]; first compound 0.08 µM): 0.502
- relative viability ([2]; first compound 0.253 µM): 0.538
- relative viability ([2]; first compound 0.8 µM): 0.58
- relative viability ([2]; first compound 2.53 µM): 0.625
- relative viability ([2]; first compound 8 µM): 0.387
- relative viability ([3]; first compound 0.08 µM): 0.21
- relative viability ([3]; first compound 0.253 µM): 0.48
- relative viability ([3]; first compound 0.8 µM): 0.318
- relative viability ([3]; first compound 2.53 µM): 0.197
- relative viability ([3]; first compound 8 µM): 0.37
- relative viability ([4]; first compound 0.08 µM): 1.07
- relative viability ([4]; first compound 0.253 µM): 1.1
- relative viability ([4]; first compound 0.8 µM): 1.08
- relative viability ([4]; first compound 2.53 µM): 1.13
- relative viability ([4]; first compound 8 µM): 0.962
- relative viability ([5]; first compound 0.253 µM): 0.719
- relative viability ([5]; first compound 0.8 µM): 0.72
- relative viability ([5]; first compound 2.53 µM): 0.832
- relative viability ([5]; first compound 8 µM): 0.751
- relative viability ([6]; first compound 0.08 µM): 1.02
- relative viability ([6]; first compound 0.253 µM): 1.06
- relative viability ([6]; first compound 0.8 µM): 1.01
- relative viability ([6]; first compound 2.53 µM): 1.02
- relative viability ([6]; first compound 8 µM): 1
- relative viability ([7]; first compound 0.08 µM): 0.875
- relative viability ([7]; first compound 0.253 µM): 0.828
- relative viability ([7]; first compound 0.8 µM): 0.85
- relative viability ([7]; first compound 2.53 µM): 0.915
- relative viability ([7]; first compound 8 µM): 0.802
- relative viability ([8]; first compound 0.08 µM): 0.248
- relative viability ([8]; first compound 0.253 µM): 0.315
- relative viability ([8]; first compound 0.8 µM): 0.195
- relative viability ([8]; first compound 2.53 µM): 0.167
- relative viability ([8]; first compound 8 µM): 0.213
- relative viability ([9]; first compound 0.08 µM): 0.661
- relative viability ([9]; first compound 0.253 µM): 0.61
- relative viability ([9]; first compound 2.53 µM): 0.674
- relative viability ([9]; first compound 8 µM): 0.718
- relative viability ([10]; first compound 0.08 µM): 0.803
- relative viability ([10]; first compound 0.253 µM): 0.831
- relative viability ([10]; first compound 0.8 µM): 0.76
- relative viability ([10]; first compound 2.53 µM): 0.747
- relative viability ([10]; first compound 8 µM): 0.881
- relative viability ([11]; first compound 0.08 µM): 0.363
- relative viability ([11]; first compound 0.253 µM): 0.23
- relative viability ([11]; first compound 0.8 µM): 0.171
- relative viability ([11]; first compound 2.53 µM): 0.246
- relative viability ([11]; first compound 8 µM): 0.376
- relative viability ([12]; first compound 0.08 µM): 0.762
- relative viability ([12]; first compound 0.253 µM): 0.753
- relative viability ([12]; first compound 0.8 µM): 0.618
- relative viability ([12]; first compound 2.53 µM): 0.713
- relative viability ([12]; first compound 8 µM): 0.886
- relative viability ([13]; first compound 0.08 µM): 1.32
- relative viability ([13]; first compound 0.253 µM): 0.806
- relative viability ([13]; first compound 0.8 µM): 1.26
- relative viability ([13]; first compound 2.53 µM): 1.09
- relative viability ([13]; first compound 8 µM): 1.04
- relative viability ([14]; first compound 0.08 µM): 0.727
- relative viability ([14]; first compound 0.253 µM): 0.42
- relative viability ([14]; first compound 0.8 µM): 0.47
- relative viability ([14]; first compound 2.53 µM): 0.533
- relative viability ([14]; first compound 8 µM): 0.46
- relative viability ([15]; first compound 0.08 µM): 1.17
- relative viability ([15]; first compound 0.253 µM): 0.983
- relative viability ([15]; first compound 0.8 µM): 0.831
- relative viability ([15]; first compound 2.53 µM): 0.909
- relative viability ([15]; first compound 8 µM): 0.693
- relative viability ([16]; first compound 0.08 µM): 0.711
- relative viability ([16]; first compound 0.253 µM): 0.703
- relative viability ([16]; first compound 0.8 µM): 0.764
- relative viability ([16]; first compound 2.53 µM): 0.637
- relative viability ([16]; first compound 8 µM): 0.676
- relative viability ([17]; first compound 0.08 µM): 0.659
- relative viability ([17]; first compound 2.53 µM): 0.443
- relative viability ([17]; first compound 8 µM): 0.524
- relative viability ([18]; first compound 0.08 µM): 0.615
- relative viability ([18]; first compound 0.253 µM): 0.539
- relative viability ([18]; first compound 0.8 µM): 0.625
- relative viability ([18]; first compound 2.53 µM): 0.693
- relative viability ([18]; first compound 8 µM): 0.549
- relative viability ([19]; first compound 0.08 µM): 0.369
- relative viability ([19]; first compound 0.253 µM): 0.42
- relative viability ([19]; first compound 0.8 µM): 0.417
- relative viability ([19]; first compound 2.53 µM): 0.389
- relative viability ([19]; first compound 8 µM): 0.394
- relative viability ([20]; first compound 0.08 µM): 0.399
- relative viability ([20]; first compound 0.8 µM): 0.333
- relative viability ([20]; first compound 2.53 µM): 0.31
- relative viability ([20]; first compound 8 µM): 0.398
- relative viability ([21]; first compound 0.08 µM): 0.713
- relative viability ([21]; first compound 0.253 µM): 0.746
- relative viability ([21]; first compound 0.8 µM): 0.776
- relative viability ([21]; first compound 2.53 µM): 0.778
- relative viability ([21]; first compound 8 µM): 0.778
